Assays:
Cryptosporidium parvum = assay: Substrate activity at Cryptosporidium parvum glucose 6-phosphate isomerase
Histone deacetylase 9 = Histone deacetylase 9 (Homo sapiens, UniProt Q9UKV0); assay: Inhibition of human recombinant HDAC9 using acetyl-Lys(trifluoroacetyl)-AMC substrate by fluorescence based assay
[1] = Inhibition of inositol monophosphatase (unknown origin); parameters: species or system Homo sapiens
[2] = Inhibition of Candida albicans H+-ATPase
[3] = Inhibition of Aspergillus fumigatus TrxR
[4] = target: T1, Protein deacetylase HDAC6 (Homo sapiens, UniProt Q9UBN7); assay: Inhibition of human recombinant HDAC6 using RHKKAc-AMC substrate by fluorescence based assay
T1 sequence (Q9UBN7 whole entry): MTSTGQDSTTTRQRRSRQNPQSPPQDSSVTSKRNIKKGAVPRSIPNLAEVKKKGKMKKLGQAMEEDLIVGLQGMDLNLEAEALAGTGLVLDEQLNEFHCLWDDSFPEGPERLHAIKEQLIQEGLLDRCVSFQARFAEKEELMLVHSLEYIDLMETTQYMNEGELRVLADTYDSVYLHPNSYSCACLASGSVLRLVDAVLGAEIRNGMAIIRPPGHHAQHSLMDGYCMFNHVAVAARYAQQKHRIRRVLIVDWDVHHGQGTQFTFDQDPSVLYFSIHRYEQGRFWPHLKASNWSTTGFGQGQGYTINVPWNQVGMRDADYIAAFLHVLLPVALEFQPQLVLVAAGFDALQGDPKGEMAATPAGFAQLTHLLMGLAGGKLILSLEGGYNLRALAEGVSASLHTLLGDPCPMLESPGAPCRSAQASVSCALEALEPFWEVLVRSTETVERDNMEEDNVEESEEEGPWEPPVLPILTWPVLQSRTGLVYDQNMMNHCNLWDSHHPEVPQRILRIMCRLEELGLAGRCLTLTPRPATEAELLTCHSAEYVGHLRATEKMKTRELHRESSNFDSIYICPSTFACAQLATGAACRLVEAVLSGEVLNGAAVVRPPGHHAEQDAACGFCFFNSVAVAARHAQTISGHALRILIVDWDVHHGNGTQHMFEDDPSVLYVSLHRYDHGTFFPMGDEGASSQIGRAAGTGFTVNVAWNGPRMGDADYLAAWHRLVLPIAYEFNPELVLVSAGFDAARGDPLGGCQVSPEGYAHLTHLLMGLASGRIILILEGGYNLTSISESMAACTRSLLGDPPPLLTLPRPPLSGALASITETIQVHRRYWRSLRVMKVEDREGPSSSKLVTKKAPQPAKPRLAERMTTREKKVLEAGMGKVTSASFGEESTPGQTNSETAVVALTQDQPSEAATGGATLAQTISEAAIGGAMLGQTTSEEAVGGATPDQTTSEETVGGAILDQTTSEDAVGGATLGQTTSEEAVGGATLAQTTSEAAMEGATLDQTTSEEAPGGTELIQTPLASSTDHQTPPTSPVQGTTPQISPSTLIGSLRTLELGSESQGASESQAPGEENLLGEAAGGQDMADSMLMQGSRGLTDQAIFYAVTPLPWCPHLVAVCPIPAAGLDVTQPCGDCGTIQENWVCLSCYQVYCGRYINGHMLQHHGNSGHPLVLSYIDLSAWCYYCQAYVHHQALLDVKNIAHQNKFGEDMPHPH

Rattus norvegicus = species: Rattus norvegicus; assay: Effect on SOD activity in brain of rat with ischemia/reperfusion injury assessed as enzyme activity per mg protein; assay type: functional
Histone deacetylase 5 = Histone deacetylase 5 (Homo sapiens, UniProt Q9UQL6); assay: Inhibition of human recombinant HDAC5 using acetyl-Lys(trifluoroacetyl)-AMC substrate by fluorescence based assay
Histone deacetylase 5, sequence (Q9UQL6 whole entry): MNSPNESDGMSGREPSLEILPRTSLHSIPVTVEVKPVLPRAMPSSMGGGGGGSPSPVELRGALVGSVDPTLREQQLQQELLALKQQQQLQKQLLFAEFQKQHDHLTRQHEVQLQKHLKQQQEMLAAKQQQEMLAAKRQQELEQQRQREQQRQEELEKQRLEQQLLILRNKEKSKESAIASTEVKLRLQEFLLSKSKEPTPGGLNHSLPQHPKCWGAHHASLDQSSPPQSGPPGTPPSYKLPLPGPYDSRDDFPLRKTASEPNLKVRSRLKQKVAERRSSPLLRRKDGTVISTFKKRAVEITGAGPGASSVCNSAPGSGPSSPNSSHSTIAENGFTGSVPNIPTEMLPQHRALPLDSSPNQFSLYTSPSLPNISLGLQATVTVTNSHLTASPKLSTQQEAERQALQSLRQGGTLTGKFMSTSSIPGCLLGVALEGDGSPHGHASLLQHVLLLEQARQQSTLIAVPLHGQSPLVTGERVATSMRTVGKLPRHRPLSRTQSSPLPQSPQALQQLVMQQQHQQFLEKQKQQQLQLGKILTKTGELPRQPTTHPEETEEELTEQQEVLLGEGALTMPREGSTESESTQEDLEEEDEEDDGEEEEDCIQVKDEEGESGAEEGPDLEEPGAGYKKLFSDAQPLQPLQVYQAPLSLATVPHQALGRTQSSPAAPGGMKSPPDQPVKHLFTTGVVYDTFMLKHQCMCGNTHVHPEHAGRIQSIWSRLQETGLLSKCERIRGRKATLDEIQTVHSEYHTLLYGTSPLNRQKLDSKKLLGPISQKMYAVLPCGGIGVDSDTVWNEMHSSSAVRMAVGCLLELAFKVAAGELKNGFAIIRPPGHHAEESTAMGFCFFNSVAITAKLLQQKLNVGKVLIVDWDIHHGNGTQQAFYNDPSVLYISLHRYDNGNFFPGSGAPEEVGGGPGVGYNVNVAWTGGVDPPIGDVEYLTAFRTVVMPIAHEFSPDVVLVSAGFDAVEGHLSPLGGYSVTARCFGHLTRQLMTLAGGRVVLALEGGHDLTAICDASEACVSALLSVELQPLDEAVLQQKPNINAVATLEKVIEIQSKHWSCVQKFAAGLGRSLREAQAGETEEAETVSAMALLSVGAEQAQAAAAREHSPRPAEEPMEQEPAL

[5] = Inhibition of Bacillus anthracis TrxR

Histone deacetylase 9, sequence (Q9UKV0 whole entry): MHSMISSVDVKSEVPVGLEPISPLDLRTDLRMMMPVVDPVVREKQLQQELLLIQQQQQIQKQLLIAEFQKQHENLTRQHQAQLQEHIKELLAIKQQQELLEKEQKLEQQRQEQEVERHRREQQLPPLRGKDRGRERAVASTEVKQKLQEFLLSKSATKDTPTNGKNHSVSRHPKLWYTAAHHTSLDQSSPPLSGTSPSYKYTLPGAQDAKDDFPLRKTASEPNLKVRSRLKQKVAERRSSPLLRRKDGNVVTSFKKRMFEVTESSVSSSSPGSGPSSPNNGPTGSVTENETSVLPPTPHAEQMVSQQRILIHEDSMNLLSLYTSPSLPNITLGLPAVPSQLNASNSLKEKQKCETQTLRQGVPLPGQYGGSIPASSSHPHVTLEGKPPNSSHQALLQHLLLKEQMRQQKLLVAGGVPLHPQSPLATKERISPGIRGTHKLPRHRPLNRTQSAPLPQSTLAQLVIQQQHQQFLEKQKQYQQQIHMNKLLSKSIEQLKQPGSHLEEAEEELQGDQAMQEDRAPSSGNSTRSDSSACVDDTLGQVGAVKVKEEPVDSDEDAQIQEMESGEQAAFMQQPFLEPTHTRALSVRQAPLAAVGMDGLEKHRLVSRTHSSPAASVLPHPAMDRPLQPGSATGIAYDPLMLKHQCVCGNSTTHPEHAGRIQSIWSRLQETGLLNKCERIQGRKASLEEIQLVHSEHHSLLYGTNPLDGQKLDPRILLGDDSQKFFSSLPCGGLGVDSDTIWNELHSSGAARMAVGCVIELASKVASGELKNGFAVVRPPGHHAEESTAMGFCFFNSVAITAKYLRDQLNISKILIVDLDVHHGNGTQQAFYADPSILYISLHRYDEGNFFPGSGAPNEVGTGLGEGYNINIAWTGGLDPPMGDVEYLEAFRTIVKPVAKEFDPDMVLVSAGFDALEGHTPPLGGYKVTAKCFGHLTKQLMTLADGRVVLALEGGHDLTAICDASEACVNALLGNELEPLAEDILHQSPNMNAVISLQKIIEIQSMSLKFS

Question: For O=c1c2ccccc2[se]n1-c1ccccc1 [EBSELEN], which Km (Cryptosporidium parvum) is on record?
Answer: The Km was 309 µM.

Question: And the IC50 (Histone deacetylase 9)?
Answer: Its IC50 is 3.7 µM.

Question: And the IC50 [1]?
Answer: Its IC50 is 1.5 µM.

Question: What about the IC50 [2] of the same compound?
Answer: Its IC50 is 3.9 µM.

Question: What about the Ki [3] of the same compound?
Answer: The Ki was 0.22 µM.

Question: And the IC50 [4]?
Answer: The IC50 was 6.9 µM.

Question: What about the Activity (Rattus norvegicus) of the same compound?
Answer: Its Activity is 0.105 U.

Question: What about the IC50 (Histone deacetylase 5) of the same compound?
Answer: The IC50 was 3.4 µM.

Question: And the IC50 [5]?
Answer: Its IC50 is 1 µM.

Reference: ChEMBL document CHEMBL4321827, “Development and Therapeutic Potential of Selenazo Compounds” (J Med Chem, 2020)
